Experimental data: BindingDB's records for doi:10.1021/jf000548p (Institut Pasteur Korea, 2020)

Key:
[1] = target: Cytochrome P450 2C19 (Homo sapiens, UniProt P33261); test: Inhibition of CYP2C19 (unknown origin)
[2] = target: Cytochrome P450 2C9 (Homo sapiens, UniProt P11712); test: Inhibition of CYP2C9 (unknown origin)
[3] = target: T1, Cytochrome P450 1A2 (Homo sapiens, UniProt P05177); test: Inhibition of CYP1A2 (unknown origin)
T1 sequence (P05177 whole entry): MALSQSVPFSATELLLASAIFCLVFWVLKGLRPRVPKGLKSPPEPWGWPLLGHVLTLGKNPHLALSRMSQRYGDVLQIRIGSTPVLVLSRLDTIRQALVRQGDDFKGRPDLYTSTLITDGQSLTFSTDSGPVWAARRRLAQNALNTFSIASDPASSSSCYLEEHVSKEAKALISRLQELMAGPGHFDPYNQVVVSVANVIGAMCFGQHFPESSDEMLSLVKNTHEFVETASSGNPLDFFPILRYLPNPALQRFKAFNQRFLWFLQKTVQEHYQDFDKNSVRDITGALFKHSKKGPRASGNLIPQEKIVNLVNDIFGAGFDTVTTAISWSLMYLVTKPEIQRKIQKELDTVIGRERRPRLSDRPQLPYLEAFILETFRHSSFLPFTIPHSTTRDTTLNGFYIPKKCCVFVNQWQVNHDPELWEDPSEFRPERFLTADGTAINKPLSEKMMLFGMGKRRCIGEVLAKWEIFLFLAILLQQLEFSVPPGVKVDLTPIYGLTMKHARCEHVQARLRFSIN

[4] = target: Potassium voltage-gated channel subfamily H member 2 (Homo sapiens, UniProt Q12809); test: Inhibition of hERG
Chain of Potassium voltage-gated channel subfamily H member 2 (Q12809 whole entry): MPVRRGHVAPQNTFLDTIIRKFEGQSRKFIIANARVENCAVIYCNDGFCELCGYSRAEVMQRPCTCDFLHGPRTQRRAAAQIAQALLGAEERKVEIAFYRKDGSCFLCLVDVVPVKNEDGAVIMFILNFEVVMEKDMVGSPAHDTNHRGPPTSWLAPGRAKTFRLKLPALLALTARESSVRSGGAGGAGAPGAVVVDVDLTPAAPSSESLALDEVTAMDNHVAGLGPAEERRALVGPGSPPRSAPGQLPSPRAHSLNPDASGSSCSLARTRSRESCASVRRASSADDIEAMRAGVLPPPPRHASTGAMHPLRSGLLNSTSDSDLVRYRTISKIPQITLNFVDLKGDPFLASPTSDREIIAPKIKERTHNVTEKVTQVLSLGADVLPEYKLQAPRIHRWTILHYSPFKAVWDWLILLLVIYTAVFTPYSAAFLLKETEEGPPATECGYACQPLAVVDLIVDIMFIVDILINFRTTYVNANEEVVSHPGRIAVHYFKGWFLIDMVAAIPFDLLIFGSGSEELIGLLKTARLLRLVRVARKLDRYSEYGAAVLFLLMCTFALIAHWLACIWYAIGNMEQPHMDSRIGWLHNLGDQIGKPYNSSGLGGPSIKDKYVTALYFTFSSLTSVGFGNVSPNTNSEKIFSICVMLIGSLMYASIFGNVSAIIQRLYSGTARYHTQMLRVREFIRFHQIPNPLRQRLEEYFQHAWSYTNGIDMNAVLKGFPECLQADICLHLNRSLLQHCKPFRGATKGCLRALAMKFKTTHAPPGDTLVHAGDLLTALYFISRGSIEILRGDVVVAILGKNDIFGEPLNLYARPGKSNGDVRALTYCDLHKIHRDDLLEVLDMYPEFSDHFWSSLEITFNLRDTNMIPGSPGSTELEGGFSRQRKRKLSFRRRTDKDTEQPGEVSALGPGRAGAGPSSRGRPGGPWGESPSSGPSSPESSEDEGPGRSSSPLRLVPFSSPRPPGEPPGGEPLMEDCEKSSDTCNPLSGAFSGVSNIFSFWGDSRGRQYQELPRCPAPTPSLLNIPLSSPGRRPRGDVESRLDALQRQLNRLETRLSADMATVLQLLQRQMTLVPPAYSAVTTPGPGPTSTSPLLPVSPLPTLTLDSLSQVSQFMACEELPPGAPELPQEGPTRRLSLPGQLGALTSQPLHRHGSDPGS

[5] = target: Cytochrome P450 2D6 (Homo sapiens, UniProt P10635); test: Inhibition of CYP2D6 (unknown origin)
Chain of Cytochrome P450 2D6 (P10635 whole entry): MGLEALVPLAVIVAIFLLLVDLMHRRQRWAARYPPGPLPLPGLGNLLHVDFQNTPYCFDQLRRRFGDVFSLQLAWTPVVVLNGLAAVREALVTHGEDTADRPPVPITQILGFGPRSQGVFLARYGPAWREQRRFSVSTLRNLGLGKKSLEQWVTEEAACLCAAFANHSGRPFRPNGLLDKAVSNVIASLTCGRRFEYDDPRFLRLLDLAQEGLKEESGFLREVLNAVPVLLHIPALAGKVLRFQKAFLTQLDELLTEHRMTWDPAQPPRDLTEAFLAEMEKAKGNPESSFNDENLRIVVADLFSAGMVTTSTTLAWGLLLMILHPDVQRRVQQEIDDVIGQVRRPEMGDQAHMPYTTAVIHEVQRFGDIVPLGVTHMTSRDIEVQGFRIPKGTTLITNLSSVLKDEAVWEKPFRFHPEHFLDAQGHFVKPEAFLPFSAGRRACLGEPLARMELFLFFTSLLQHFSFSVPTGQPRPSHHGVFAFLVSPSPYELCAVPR

[6] = target: Cytochrome P450 3A4 (Homo sapiens, UniProt P08684); test: Inhibition of CYP3A4 (unknown origin)
Chain of Cytochrome P450 3A4 (P08684 whole entry): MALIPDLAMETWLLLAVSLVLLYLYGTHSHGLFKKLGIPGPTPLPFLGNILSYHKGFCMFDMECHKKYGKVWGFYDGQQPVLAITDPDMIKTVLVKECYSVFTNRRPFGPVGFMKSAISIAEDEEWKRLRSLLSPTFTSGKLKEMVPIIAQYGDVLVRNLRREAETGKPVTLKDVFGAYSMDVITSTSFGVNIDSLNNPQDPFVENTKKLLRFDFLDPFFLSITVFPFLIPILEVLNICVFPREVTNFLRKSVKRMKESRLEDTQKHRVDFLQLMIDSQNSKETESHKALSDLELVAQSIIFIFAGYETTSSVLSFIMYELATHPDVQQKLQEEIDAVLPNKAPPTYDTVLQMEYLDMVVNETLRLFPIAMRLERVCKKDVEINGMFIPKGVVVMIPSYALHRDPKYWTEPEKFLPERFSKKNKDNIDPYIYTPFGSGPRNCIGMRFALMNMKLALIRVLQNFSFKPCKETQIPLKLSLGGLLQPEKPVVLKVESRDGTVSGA

Chain of Cytochrome P450 2C19 (P33261 whole entry): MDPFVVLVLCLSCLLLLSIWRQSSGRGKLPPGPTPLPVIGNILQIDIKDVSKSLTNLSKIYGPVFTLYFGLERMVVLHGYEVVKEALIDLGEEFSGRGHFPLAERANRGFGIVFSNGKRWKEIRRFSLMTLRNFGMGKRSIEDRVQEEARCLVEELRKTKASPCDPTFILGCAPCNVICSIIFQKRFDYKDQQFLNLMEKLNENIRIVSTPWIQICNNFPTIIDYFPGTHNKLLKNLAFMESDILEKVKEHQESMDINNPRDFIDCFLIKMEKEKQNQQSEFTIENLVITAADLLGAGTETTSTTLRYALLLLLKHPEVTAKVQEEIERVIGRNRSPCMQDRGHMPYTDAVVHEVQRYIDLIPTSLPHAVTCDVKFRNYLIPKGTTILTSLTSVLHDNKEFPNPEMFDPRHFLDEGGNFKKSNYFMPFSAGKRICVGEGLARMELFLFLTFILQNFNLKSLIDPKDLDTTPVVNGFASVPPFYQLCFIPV
Chain of Cytochrome P450 2C9 (P11712 whole entry): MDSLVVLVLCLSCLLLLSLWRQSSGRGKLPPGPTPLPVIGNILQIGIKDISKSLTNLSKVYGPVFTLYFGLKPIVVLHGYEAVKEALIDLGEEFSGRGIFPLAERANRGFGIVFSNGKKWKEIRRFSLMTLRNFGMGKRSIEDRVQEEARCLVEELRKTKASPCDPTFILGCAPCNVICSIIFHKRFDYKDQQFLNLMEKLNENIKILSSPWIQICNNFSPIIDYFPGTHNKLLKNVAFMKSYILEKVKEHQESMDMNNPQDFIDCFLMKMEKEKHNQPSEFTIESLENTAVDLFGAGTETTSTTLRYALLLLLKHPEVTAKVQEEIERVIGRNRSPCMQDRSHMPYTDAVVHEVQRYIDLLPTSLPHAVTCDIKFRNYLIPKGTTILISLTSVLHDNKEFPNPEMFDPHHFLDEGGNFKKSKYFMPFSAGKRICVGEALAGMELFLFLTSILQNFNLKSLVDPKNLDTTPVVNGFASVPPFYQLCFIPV

## Cc1nc2cc(NC(=O)c3cc4sc(N5CCC(C(=O)N(C)C)CC5)nc4s3)ccc2o1
[1]
  IC50: > 50 µM
[2]
  IC50: > 50 µM
[3]
  IC50: > 50 µM
[4]
  IC50: > 30 µM
[5]
  IC50: > 50 µM
[6]
  IC50: > 50 µM

## O=C(Nc1ccc(-c2ccc(F)cn2)cc1)c1cc2sc(NCCN3CCOCC3)nc2s1
[1]
  IC50: > 100 µM
[2]
  IC50: 7.41 µM
[3]
  IC50: > 100 µM
[4]
  IC50: 27.6 µM
[5]
  IC50: 6.85 µM
[6]
  IC50: 6.95 µM
